Where two headings read alike, the source gives them in different places.
Key:
ABL1 (64-515) [1] = target: T1, ABL1 (64-515) (Homo sapiens (Human), UniProt P00519); test: Radio ABL1 (64-515) assay (radiometric filter-binding); type: biochemical
Description: For determination of ABL kinase activity, the radiometric filter-binding assay was used. […] Pre-incubation of enzyme with compounds (when stated) was performed by exposing the enzyme to compounds prior to addition of the substrate mixture (ATP and/or peptide substrate). […] Millipore, Volketswil, Switzerland) prepared according to the manufacturer's instructions. Filter-plates were washed 3× with 0.5% H3PO4, followed by addition of 30 μL scintillation cocktail (Microscint, Perkin Elmer) per well and then analysed in a TopCount NXT scintillation counter (Perkin Elmer). Results were expressed as IC50 values.

ABL1 (64-515) [2] = target: T1, ABL1 (64-515); test: Caliper ABL1 (64-515) assay (microfluidic mobility shift); type: biochemical
Description: All assays were performed in 384-well microtiter plates. Each assay plate contained 8-point serial dilutions for 40 test compounds, as well as four 8-point serial dilutions of staurosporine as a reference compound, plus 16 high and 16 low controls. Liquid handling and incubation steps were done on a Thermo CatX workstation equipped with Innovadyne Nanodrop Express. Between pipetting steps, tips were cleaned in wash cycles using wash buffer.
The assay plates were prepared by addition of 50 nL per well of compound solution in 90% DMSO. […] Plates with terminated kinase reactions were transferred to the Caliper LC3000 workstations for reading. Phosphorylated and unphosphorylated peptides were separated using the Caliper microfluidic mobility shift technology. Briefly, samples from terminated kinase reactions were applied to the chip. Analytes are transported through the chip by constant buffer flow and the migration of the substrate peptide is monitored by the fluorescence signal of its label. Phosphorylated peptide (product) and unphosphorylated peptide (substrate) are separated in an electric field by their charge/mass ratio. Kinase activities were calculated from the amounts of formed phospho-peptide. IC50 values were determined from percent inhibition values at different compound concentrations by non-linear regression analysis.
Test compounds were dissolved in DMSO (10 mM) and transferred into 1.4 mL flat bottom or V-shaped Matrix tubes carrying a unique 2D matrix. The stock solutions were stored at +2° C. if not used immediately. For the test procedure the vials were defrosted and identified by a scanner whereby a working sheet was generated that guided the subsequent working steps.
Compound dilutions were made in 96-well plates. This format enabled the assay of maximally 40 individual test compounds at 8 concentrations (single points) including 4 reference compounds. The dilution protocol included the production of “pre-dilution plates”, “master plates” and “assay plates”.
Polypropylene 96-well plates were used as pre-dilution plates. […] All dilution steps were done on a HamiltonSTAR robot.
These plates were used directly for the assay which was performed in a total volume of 9.05 μL.

Ba/F3-BCR-ABL1-WT cells = test: Ba/F3-BCR-ABL1-WT cellular proliferation assay; type: cell-based, murine; settings: Mus musculus, read-out: Ba/F3-BCR-ABL1-WT IC50
Excerpt: The murine bone marrow-derived cell line Ba/F3 was used to generate the appropriate cell line models. Ba/F3 cells were obtained from the German Collection of Microorganisms and Cell Cultures (DSMZ, Braunschweig and DSMZ No. ACC 300). […] These cells are referred to as Ba/F3-WT.
To generate Ba/F3 cells that depend on BCR-ABL1 expression for growth and survival, Ba/F3 cells were engineered to express BCR-ABL1 using retroviral transduction with a MSCV based retroviral vector containing a p210 BCR-ABL1expression cassette. […] These cells are referred to as Ba/F3-BCR-ABL1-WT.
Ba/F3-WT cells were maintained in RPMI1640 media with L-glutamine, HEPES (Lonza), 10% FBS (Gibco) and 5 ng/ml IL-3 (Calbiochem).
For each cell line, the cell density was adjusted to 50 000 cells/mL and 50 μL (2500 cells) added per well of a 384-well assay plate.
Test compounds were resuspended in DMSO at a concentration of 10 mM. A serial three-fold dilution of each compound with DMSO was performed in 384-well plates using the Janus Liquid Dispenser (PerkinElmer). Compound was delivered to the assay plates containing 2500 cells in a 50 μL volume via Acoustic delivery from an ATS-100 (EDC).
Cells were incubated at 37° C. in a humidified environment with 5% carbon dioxide for 48 hours. Britelite plus solution (Perkin Elmer) was prepared according to the manufacturer's instructions and 25 μL added to each well of the assay plate. […] The degree of luminescence correlates with the number of cells in each well. The effect of each inhibitor concentration can therefore be calculated and IC50 values generated.

[3] = Compound concentration in mouse brain and plasma; type: in vivo; settings: 5 minutes after a single intravenous injection of 1 mg/kg in mice; for Kp at 5 min / concentration at 5 min: mouse; for Kp at 5 min: brain/plasma, read-out: Mean Ratio (brain/plasma); for concentration at 5 min: plasma, read-out: Mean blood (drug concentration in plasma)
Description: Approximately two parts volume of MeOH/water (2/8 v/v) were added to the preweighted brain samples (˜250 mg) and subsequently homogenized using Covaris™ instrument. A 50 μL aliquot was subjected to protein precipitation and analysis as described below.
Fifty μL aliquots of blood or brain homogenate from animals treated with c-ABL inhibitors were first spiked with 5 μL of the internal standard (N-(4-methyl-3-((4-(6-methylpyridin-3-yl)pyrimidin-2-yl)amino)phenyl)-4-((4-methylpiperazin-1-yl)methyl)benzamide for positive ion mode 5-chloro-N-(4-(N-(cyclohexylcarbamoyl)sulfamoyl)-phenethyl)-2-methoxybenzamide for negative ion mode, respectively), subsequently deproteinated by adding MeCN (200 μL), centrifuged, the supernatant evaporated to dryness, and re-dissolved in 100 μL of a MeOH/water (1/1 v/v). Five μL were subjected to HPLC-MS/MS analysis. Chromatographic separation from interfering endogenous and exogenous contaminants was achieved on an Phenomenex™ Polar RP reversed-phase HPLC column (particle size: 2.5 μm; column dimensions: 2×50 mm) using a linear gradient of 100% water containing 1% formic acid (A), and MeOH supplemented with 1% formic acid (B), which was run over 6.0 min from 5% to 90% B, then kept at 100% B for 1.0 min, and a subsequent 1.5 min postrun with re-equilibration of the column. The column was kept at 50° C. The flow of 350 μL/min from the HPLC system (Flux Rheos Allegro LC pump and CTC Pal autosampler) was directly introduced into the ion source of an Finnigan™ Quantum Ultra MS-detector (triple stage quadrupole mass analyzer) and subjected to heated electrospray ionization (HESI).
c-ABL inhibitors were specifically detected using multiple reaction monitoring from their quasi-molecular parent ion ([M+H]^+ or [M−H]^−) to specific daughter ions as given in the table below. Quantification of blood and brain levels of c-ABL inhibitors compounds were based on a 6-level calibration curve made in triplicate.

T1 sequence (P00519 64-515): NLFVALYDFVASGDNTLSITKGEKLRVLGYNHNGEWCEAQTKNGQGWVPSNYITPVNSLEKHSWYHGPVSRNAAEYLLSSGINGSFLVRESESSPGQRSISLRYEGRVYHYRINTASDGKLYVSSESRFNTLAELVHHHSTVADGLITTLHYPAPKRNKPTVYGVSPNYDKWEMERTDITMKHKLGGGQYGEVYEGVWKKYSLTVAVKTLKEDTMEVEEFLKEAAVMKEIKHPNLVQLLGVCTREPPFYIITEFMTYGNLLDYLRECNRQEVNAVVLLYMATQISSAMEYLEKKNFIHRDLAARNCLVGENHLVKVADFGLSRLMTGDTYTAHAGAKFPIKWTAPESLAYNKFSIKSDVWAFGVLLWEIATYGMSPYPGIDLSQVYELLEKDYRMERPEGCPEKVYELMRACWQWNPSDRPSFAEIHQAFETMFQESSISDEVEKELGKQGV

Row | Structure (SMILES) | IC50 (ABL1 (64-515) [1]) [nM] | IC50 (Ba/F3-BCR-ABL1-WT cells; 48 hours) [nM] | also measured
1 | O=C(Nc1ccc(OC(F)(F)F)cc1)c1cc(-c2cncnc2)ccc1F [Example 59, 2-Fluoro-5-(pyrimidin-5-yl)-N-(4-(trifluoromethoxy)phenyl)benzamide] | 20 | – | IC50 (ABL1 (64-515) [2]): 93 nM
2 | O=C(Nc1ccc(OC(F)(F)F)cc1)c1cnc(OC2CCOCC2)c(-c2cncnc2)c1 [Example 53, 5-(Pyrimidin-5-yl)-6-((tetrahydro-2h-pyran-4-yl)oxy)-N-(4-(trifluoromethoxy)phenyl)nicotinamide] | 8.9 | – | IC50 (ABL1 (64-515) [2]): 22 nM
3 | COc1ncc(C(=O)Nc2ccc(OC(F)(F)F)cc2)cc1-c1cncnc1 [Example 49, 6-Methoxy-5-(pyrimidin-5-yl)-N-(4-(trifluoromethoxy)phenyl)nicotinamide] | < 3 | 47 | –
4 | Cc1ccc(C(=O)Nc2ccc(OC(F)(F)F)cc2)cc1-c1cccnc1 [Example 15, 4-Methyl-3-(pyridin-3-yl)-N-(4-(trifluoromethoxy)phenyl)benzamide] | 4 | 11 | Mean brain (drug concentration in brain) [3]: 6847 pmol/g; Kp at 5 min [3]: 3.2; concentration at 5 min [3]: 2140 nM
5 | O=C(Nc1ccc(CC(F)(F)F)cc1)c1cccc(-c2cncnc2)c1 [Example 12, 3-(Pyrimidin-5-yl)-N-(4-(2,2,2-trifluoroethyl)phenyl)benzamide] | – | 148 | –
6 | O=C(Nc1ccc(OC(F)(F)F)cc1)c1cnc(Cl)c(-c2ccn[nH]2)c1 [Example 80, 6-Chloro-5-(1H-pyrazol-5-yl)-N-(4-(trifluoromethoxy)phenyl)nicotinamide] | – | – | IC50 (ABL1 (64-515) [2]): 55 nM
7 | COc1ncc(-c2cc(C(=O)Nc3ccc(OC(F)(F)F)cc3)ccc2C)cn1 [Example 13, 3-(2-Methoxypyrimidin-5-yl)-4-methyl-N-(4-(trifluoromethoxy)phenyl)benzamide] | 3 | 4.9 | Mean brain (drug concentration in brain) [3]: 4011 pmol/g; Kp at 5 min [3]: 1.29; concentration at 5 min [3]: 3090 nM
8 | O=C(Nc1ccc(OC(F)(F)F)cc1)c1cnc(Cl)c(-c2ncc[nH]2)c1 [Example 65, 6-Chloro-5-(1H-imidazol-2-yl)-N-(4-(trifluoromethoxy)phenyl)nicotinamide] | 5 | 184 | –
9 | O=C(Nc1ccc(OC(F)(F)F)cc1)c1ccc(Cl)c(-c2cccnc2)c1 [Example 26, 4-chloro-3-(pyridin-3-yl)-N-(4-(trifluoromethoxy)phenyl)benzamide] | 13 | – | –
10 | COc1ncc(-c2cc(C(=O)Nc3ccc(OC(F)(F)F)cc3)ccc2F)cn1 [Example 19, 4-fluoro-3-(2-methoxypyrimidin-5-yl)-N-(4-(trifluoromethoxy)phenyl)benzamide] | 12 | – | –
11 | O=C(Nc1ccc(OC(F)(F)F)c(F)c1)c1cccc(-c2cncnc2)c1 [Example 9, N-(3-Fluoro-4-(trifluoromethoxy)phenyl)-3-(pyrimidin-5-yl)benzamide] | 22 | 89 | –
12 | N#CC1(c2ncc(C(=O)Nc3ccc(OC(F)(F)F)cc3)cc2-c2cncnc2)CCOCC1 [Example 46, 6-(4-Cyanotetrahydro-2h-pyran-4-yl)-5-(pyrimidin-5-yl)-N-(4-(trifluoromethoxy)phenyl)nicotinamide] | – | – | IC50 (ABL1 (64-515) [2]): 6.6 nM
13 | Nc1cnc(-c2cccc(C(=O)Nc3ccc(OC(F)(F)F)cc3)c2)cn1 [Example 4, 3-(5-Aminopyrazin-2-yl)-N-(4-(trifluoromethoxy)phenyl)benzamide] | 7 | – | –
14 | COc1ccc(C(=O)Nc2ccc(OC(F)(F)F)cc2)cc1-c1cc[nH]n1 [Example 34, 4-methoxy-3-(1H-pyrazol-3-yl)-N-(4-(trifluoromethoxy)phenyl)benzamide] | 13 | 77 | –
15 | O=C(Nc1ccc(OC(F)(F)F)cc1)c1cccc(-c2cncnc2)c1 [Example 1, 3-(Pyrimidin-5-yl)-N-(4-(trifluoromethoxy)phenyl)benzamide] | – | – | IC50 (Ba/F3-BCR-ABL1-WT cells; 48 h): 150 nM; Mean brain (drug concentration in brain) [3]: 4946 pmol/g; concentration at 5 min [3]: 1160 nM
16 | O=C(Nc1ccc(OC(F)(F)F)cc1)c1ccc(Cl)c(-c2cncnc2)c1 [Example 24, 4-chloro-3-(pyrimidin-5-yl)-N-(4-(trifluoromethoxy)phenyl)benzamide] | < 3 | – | –
17 | O=C(Nc1ccc(OC(F)(F)F)cc1)c1cncc(-c2cccnc2)c1 [Example 74, N-(4-(Trifluoromethoxy)phenyl)-[3,3′-bipyridine]-5-carboxamide] | 8.7 | 30 | Mean brain (drug concentration in brain) [3]: 8509 pmol/g; Kp at 5 min [3]: 3.29; concentration at 5 min [3]: 2580 nM
18 | O=C(Nc1ccc(OC(F)(F)F)cc1)c1cncc(-c2cncnc2)c1 [Example 42, 5-(Pyrimidin-5-yl)-N-(4-(trifluoromethoxy)phenyl)nicotinamide] | – | – | IC50 (Ba/F3-BCR-ABL1-WT cells; 48 h): 29 nM
19 | Cc1ccc(C(=O)Nc2ccc(OC(F)(F)F)cc2)cc1-c1cncs1 [Example 17, 4-Methyl-3-(thiazol-5-yl)-N-(4-(trifluoromethoxy)phenyl)benzamide] | 3 | 27 | Mean brain (drug concentration in brain) [3]: 6985 pmol/g; Kp at 5 min [3]: 2.3; concentration at 5 min [3]: 3030 nM
20 | COc1ccc(C(=O)Nc2ccc(OC(F)(F)F)cc2)cc1-c1ccc(C(C)=O)s1 [Example 36, 3-(5-Acetylthiophen-2-yl)-4-methoxy-N-(4-(trifluoromethoxy)phenyl)benzamide] | 3.4 | – | –
21 | O=C(Nc1ccc(OC(F)(F)F)cc1)c1ccc(OCCO)c(-c2cncnc2)c1 [Example 38, 4-(2-Hydroxyethoxy)-3-(pyrimidin-5-yl)-N-(4-(trifluoromethoxy)phenyl)benzamide] | < 3 | – | –
22 | O=C(Nc1ccc(OC(F)(F)F)cc1)c1ccc(F)c(-c2cc[nH]n2)c1 [Example 23, 4-fluoro-3-(1H-pyrazol-3-yl)-N-(4-(trifluoromethoxy)phenyl)benzamide] | 31 | 693 | –
23 | O=C(Nc1ccc(OC(F)(F)F)cc1)c1cccc(-c2cncnc2)c1F [Example 60, 2-Fluoro-3-(pyrimidin-5-yl)-N-(4-(trifluoromethoxy)phenyl)benzamide] | 36 | – | –
24 | O=C(Nc1ccc(OC(F)(F)F)cc1)c1cnc(OCCNCCO)c(-c2cncnc2)c1 [Example 50, 6-(2-((2-Hydroxyethyl)amino)ethoxy)-5-(pyrimidin-5-yl)-N-(4-(trifluoromethoxy)phenyl)nicotinamide] | 4.2 | – | –
25 | COC(=O)c1cc(-c2cccc(C(=O)Nc3ccc(OC(F)(F)F)cc3)c2)cs1 [Example 6, Methyl 4-(3-((4-(trifluoromethoxy)phenyl)carbamoyl)phenyl)thiophene-2-carboxylate] | 3.3 | 1060 | –
26 | COc1ncccc1-c1cncc(C(=O)Nc2ccc(OC(F)(F)F)cc2)c1 [Example 62, 2′-Methoxy-N-(4-(trifluoromethoxy)phenyl)-[3,3′-bipyridine]-5-carboxamide] | 69 | – | –
27 | O=C(Nc1ccc(OC(F)(F)F)cc1)c1ccc(F)c(-c2cncnc2)c1 [Example 18, 4-fluoro-3-(pyrimidin-5-yl)-N-(4-(trifluoromethoxy)phenyl)benzamide] | 3.2 | – | –
28 | O=C(Nc1ccc(OC(F)(F)F)cc1)c1ccc(Cl)c(-c2ccncc2)c1 [Example 27, 4-chloro-3-(pyridin-4-yl)-N-(4-(trifluoromethoxy)phenyl)benzamide] | 31 | – | –
29 | O=C(Nc1ccc(OC(F)(F)F)cc1)c1cccc(-c2cnccn2)c1 [Example 5, 3-(Pyrazin-2-yl)-N-(4-(trifluoromethoxy)phenyl)benzamide] | 3.1 | – | –

From patent US9315489B2, “Compounds and compositions for inhibiting the activity of ABL1, ABL2 and BCR-ABL1” (Novartis AG, priority 2012, dated 2016)
